Among the data in patent US8404685B2, “Dihydropyrazole derivatives as tyrosine kinase modulators for the treatment of tumors” (Merck Patent Gesellschaft Mit Beschrankter Haftung, priority 2008, dated 2013) are IC50 values, retold here.

Experiment [1] concerns the target T1, Met kinase (Homo sapiens, UniProt P08581). Description: Met kinase inhibition, flashplate method (enzyme). Format: biochemical. On the set-up: 6His (N); purchased Upstate 14-526; host or cells: Sf21 insect cells (S. frugiperda), baculovirus. The source says:
According to the manufacturer's data (Met, active, Upstate, catalogue No. 14-526), Met kinase is expressed for the purposes of protein production in insect cells (Sf21; S. frugiperda) and subsequent affinity-chromatographic purification as “N-terminal 6His-tagged” recombinant human protein in a baculovirus expression vector.
The test plates used are 96-well Flashplate® microtitre plates from Perkin Elmer (Cat. No. SMP200). The components of the kinase reaction described below are pipetted into the assay plate. The Met kinase and the substrate poly Ala-Glu-Lys-Tyr, (pAGLT, 6:2:5:1), are incubated for 3 hrs at room temperature with radioactively labelled ^33P-ATP in the presence and absence of test substances in a total volume of 100 μl. The reaction is terminated using 150 μl of a 60 mM EDTA solution. After incubation for a further 30 min at room temperature, the supernatants are filtered off with suction, and the wells are washed three times with 200 μl of 0.9% NaCl solution each time. The measurement of the bound radioactivity is carried out by means of a scintillation measuring instrument (Topcount NXT, Perkin-Elmer).
The full value used is the inhibitor-free kinase reaction. This should be approximately in the range 6000-9000 cpm. The pharmacological zero value used is staurosporin in a final concentration of 0.1 mM. The inhibitory values (IC50) are determined using the RS1_MTS program.
Kinase reaction conditions per well:
10 μl of substance to be tested in assay buffer with 10% of DMSO
10 μl of ATP (final concentration 1 μM cold, 0.35 μCi of ^33P-ATP)
50 μl of Met kinase/substrate mixture in assay buffer;
• (10 ng of enzyme/well, 50 ng of pAGLT/well) • Solutions used: • Assay buffer: • 50 mM HEPES • 3 mM magnesium chloride • 3 μM sodium orthovanadate • 3 mM manganese(II) chloride • 1 mM dithiothreitol (DTT) • pH=7.5 (to be set using sodium hydroxide) • Stop solution: • 60 mM Titriplex III (EDTA) • ^33P-ATP: Perkin-Elmer; • Met kinase: Upstate, Cat. No. 14-526, Stock 1 μg/10 μl; spec. activity 954 U/mg; • Poly-Ala-Glu-Lys-Tyr, 6:2:5:1: Sigma Cat. No. P1152 In-Vivo Tests

Experiment [2] deals with T1, Met kinase. Description: Met kinase inhibition (cell). The experiment is classed as cell-based.

Molecules are shown by their SMILES.

T1 sequence (P08581 25-1390): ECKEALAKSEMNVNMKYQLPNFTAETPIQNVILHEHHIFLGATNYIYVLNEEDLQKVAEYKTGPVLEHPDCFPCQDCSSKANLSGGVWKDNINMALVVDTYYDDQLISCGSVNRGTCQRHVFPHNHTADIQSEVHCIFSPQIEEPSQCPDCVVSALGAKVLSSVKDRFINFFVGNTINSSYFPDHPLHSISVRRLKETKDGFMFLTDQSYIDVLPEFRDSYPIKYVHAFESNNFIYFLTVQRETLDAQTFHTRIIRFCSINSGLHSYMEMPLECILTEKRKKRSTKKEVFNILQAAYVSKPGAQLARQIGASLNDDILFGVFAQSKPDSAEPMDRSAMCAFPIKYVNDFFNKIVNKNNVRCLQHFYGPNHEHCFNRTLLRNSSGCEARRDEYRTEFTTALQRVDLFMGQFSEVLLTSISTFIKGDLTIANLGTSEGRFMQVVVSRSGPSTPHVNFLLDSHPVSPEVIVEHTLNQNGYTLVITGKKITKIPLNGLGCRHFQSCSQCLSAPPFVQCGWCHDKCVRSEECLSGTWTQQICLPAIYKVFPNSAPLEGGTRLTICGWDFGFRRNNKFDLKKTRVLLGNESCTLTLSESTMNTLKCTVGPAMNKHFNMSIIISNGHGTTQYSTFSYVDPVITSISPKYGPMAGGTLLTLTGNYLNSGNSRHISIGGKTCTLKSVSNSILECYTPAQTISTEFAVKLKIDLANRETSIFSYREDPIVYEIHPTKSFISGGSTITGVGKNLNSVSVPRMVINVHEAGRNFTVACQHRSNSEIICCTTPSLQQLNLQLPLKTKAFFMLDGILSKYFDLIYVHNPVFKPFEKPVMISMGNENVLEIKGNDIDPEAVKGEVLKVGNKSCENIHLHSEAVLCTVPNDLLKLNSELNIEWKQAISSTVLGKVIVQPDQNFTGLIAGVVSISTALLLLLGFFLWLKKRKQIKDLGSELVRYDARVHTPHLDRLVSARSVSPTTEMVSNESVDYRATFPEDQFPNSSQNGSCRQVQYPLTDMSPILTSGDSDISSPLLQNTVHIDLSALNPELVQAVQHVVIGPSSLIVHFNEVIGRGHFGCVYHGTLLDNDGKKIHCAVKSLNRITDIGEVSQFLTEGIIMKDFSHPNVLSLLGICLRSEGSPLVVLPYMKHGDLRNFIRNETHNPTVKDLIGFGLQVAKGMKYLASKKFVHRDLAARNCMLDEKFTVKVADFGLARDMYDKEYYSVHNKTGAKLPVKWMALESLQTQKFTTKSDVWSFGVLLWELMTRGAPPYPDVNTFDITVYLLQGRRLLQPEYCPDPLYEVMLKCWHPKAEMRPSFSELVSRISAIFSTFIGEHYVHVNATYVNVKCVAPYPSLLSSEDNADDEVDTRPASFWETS

A word on the IC50: it is the midpoint of a concentration-inhibition curve. With `O=C(Cc1cccc(-c2ncc(-c3cnn(CCN4CCCC4)c3)cn2)c1)N1CCC(c2cc(Cl)ccc2Cl)=N1` [Compound A1, 1-[3-(2,5-dichlorophenyl)-4,5-dihydropyrazol-1-yl]-2-(3-{5-[1-(2-pyrrolidin-1-ylethyl)-1H-pyrazol-4-yl]pyrimidin-2-yl}phenyl)ethanone], the IC50 against Met kinase [1] and against Met kinase [2] was 1 to 100 nM throughout.
Consider `N#Cc1cccc(C2=NN(C(=O)Cc3cccc(-c4ncc(Br)cn4)c3)CC2)c1` [Compound A7, 3-(1-{2-[3-(5-bromopyrimidin-2-yl)phenyl]acetyl}-4,5-dihydro-1H-pyrazol-3-yl)benzonitrile], for which the IC50 against Met kinase [1] and on Met kinase [2] was 1 to 100 nM in each case.
Turning to `O=C(Cc1cccc(-c2ncc(OCCN3CCOCC3)cn2)c1)N1CCC(c2cc(Cl)ccc2Cl)=N1` [Compound A8, 1-[3-(2,5-dichlorophenyl)-4,5-dihydropyrazol-1-yl]-2-{3-[5-(2-morpholin-4-ylethoxy)pyrimidin-2-yl]phenyl}ethanone], the IC50 against Met kinase [1] and on Met kinase [2] was 1 to 100 nM throughout.
